ChEMBL document CHEMBL2057081, “Triterpenoid saponins from Xanthoceras sorbifolia Bunge and their inhibitory activity on human cancer cell lines” (Bioorg Med Chem Lett, 2012)

Legend:
Format in all cases: functional, cell-based
HEp-2 = experiment: Cytotoxicity against human Hep2 cells by MTT assay
[1] = Cytotoxicity against human A375-S2 cells by MTT assay
HT-1080 = experiment: Cytotoxicity against human HT1080 cells by MTT assay
A549 = experiment: Cytotoxicity against human A549 cells by MTT assay
HepG2 = experiment: Cytotoxicity against human HepG2 cells by MTT assay
PC-3 = experiment: Cytotoxicity against human PC3 cells by MTT assay
[2] = Cytotoxicity against human MDA231 cells by MTT assay; conditions: MDA-MB-231
MCF7 = experiment: Cytotoxicity against human MCF7 cells by MTT assay
BGC-823 = experiment: Cytotoxicity against human BGC823 cells by MTT assay
HeLa = experiment: Cytotoxicity against human HeLa cells by MTT assay

Measured: IC50

C/C=C(/C)C(=O)O[C@@H]1[C@@H](O)[C@H](O[C@H]2CC[C@]3(C)[C@H]4CC=C5[C@@H]6CC(C)(C)[C@@H](O)[C@H](O)[C@]6(CO[C@@H]6O[C@H](CO[C@@H]7O[C@H](CO)[C@@H](O)[C@H](O)[C@H]7O)[C@@H](O)[C@H](O)[C@H]6O[C@@H]6O[C@H](CO)[C@@H](O)[C@H](O)[C@H]6O)CC[C@@]5(C)[C@]4(C)CC[C@H]3C2(C)C)O[C@H](CO[C@@H]2O[C@H](CO)[C@@H](O)[C@H](O)[C@H]2O)[C@H]1OC(C)=O [SORBIFOLIASIDE F]
> 100 µM: all assays above

C[C@@H]1O[C@@H](O[C@H]2[C@H](OC[C@@]34CC[C@]5(C)C(=CC[C@@H]6[C@@]7(C)CC[C@H](O[C@@H]8O[C@H](CO[C@@H]9O[C@H](CO)[C@@H](O)[C@H](O)[C@H]9O)[C@@H](O)[C@H](O)[C@H]8O)C(C)(C)[C@@H]7CC[C@]65C)[C@@H]3CC(C)(C)[C@@H](O)[C@@H]4O)O[C@H](CO[C@@H]3O[C@H](CO)[C@@H](O)[C@H](O)[C@H]3O)[C@@H](O)[C@@H]2O)[C@H](O)[C@H](O)[C@H]1O [XANIFOLIA O54]
> 100 µM: all assays above
